Assay results from US5763198A, “Screening assays for compounds” (Sugen, Inc., priority 1994, dated 1998).
Where two headings read alike, the source gives them in different places.

Molecular target: T1, EGF-R (Homo sapiens, UniProt P00533)
T1 construct: another EGFR over-expressing human epidermoid carcinoma cell line, A431 (ATCC CRL 1555); endogenous in cells; host or cells: A431 (ATCC CRL 1555)
Assay: Cell-free screening assay for EGF-R kinase activity (EGFR immobilized from A431 lysate)
Assay type: biochemical
Conditions: read-out: IC50, EGF-R kinase activity in a cell free system
Description: This assay provides a method for measuring the effects of test substances on the kinase activity of specific targets in a cell-free system. The target substrate is isolated from cell lysates by immobilization in microtiter plate wells coated with anti-substrate antibody. Following addition of the test substance, ATP and a bivalent cation are added to the wells to initiate the kinase-reaction. Concentrations of ATP can be varied to assess whether a test compound competes for ATP or substrate interaction. […] Phosphorylation of tyrosine residues on the immobilized target is then detected using antiphosphotyrosine antiserum.
The materials and reagents used are described in Section 6.1 with the exception that the cells used to prepare the cell lysate were another EGFR over-expressing human epidermoid carcinoma cell line, A431 (ATCC CRL 1555). Test substances were obtained from LC Service Corp (Woburn, Mass.).
Preparation of the assay plates was performed as described in Section 6.2.1.
Cells (A431) were grown to 80-90% confluency in DMEM (Gibco) plus 10% calf serum then washed twice with PBS. HNTG was added and the dish place on ice for five minutes. […] The cleared lysate can be stored at -80 C until used.
Seven μg of cell lysate was added to each well of a prepared assay plate plus PBS to make a final volume of 150 μl. […] The plate was incubated for 30 minutes, shaking, at room temperature.
The kinase reaction was initiated by the addition of 15 μl of ATP/Mn mix (in 50 mM MnCL2, final concentration of ATP 1 μM, 3 μM or 10 μM) for a total volume of […]. The plate was incubated for 5 minutes at room temperature, shaking, then washed 5 times with TBST. The amount of phosphorylation present was measured as described in Section 6.2.3.

T1 sequence (P00533 25-1210): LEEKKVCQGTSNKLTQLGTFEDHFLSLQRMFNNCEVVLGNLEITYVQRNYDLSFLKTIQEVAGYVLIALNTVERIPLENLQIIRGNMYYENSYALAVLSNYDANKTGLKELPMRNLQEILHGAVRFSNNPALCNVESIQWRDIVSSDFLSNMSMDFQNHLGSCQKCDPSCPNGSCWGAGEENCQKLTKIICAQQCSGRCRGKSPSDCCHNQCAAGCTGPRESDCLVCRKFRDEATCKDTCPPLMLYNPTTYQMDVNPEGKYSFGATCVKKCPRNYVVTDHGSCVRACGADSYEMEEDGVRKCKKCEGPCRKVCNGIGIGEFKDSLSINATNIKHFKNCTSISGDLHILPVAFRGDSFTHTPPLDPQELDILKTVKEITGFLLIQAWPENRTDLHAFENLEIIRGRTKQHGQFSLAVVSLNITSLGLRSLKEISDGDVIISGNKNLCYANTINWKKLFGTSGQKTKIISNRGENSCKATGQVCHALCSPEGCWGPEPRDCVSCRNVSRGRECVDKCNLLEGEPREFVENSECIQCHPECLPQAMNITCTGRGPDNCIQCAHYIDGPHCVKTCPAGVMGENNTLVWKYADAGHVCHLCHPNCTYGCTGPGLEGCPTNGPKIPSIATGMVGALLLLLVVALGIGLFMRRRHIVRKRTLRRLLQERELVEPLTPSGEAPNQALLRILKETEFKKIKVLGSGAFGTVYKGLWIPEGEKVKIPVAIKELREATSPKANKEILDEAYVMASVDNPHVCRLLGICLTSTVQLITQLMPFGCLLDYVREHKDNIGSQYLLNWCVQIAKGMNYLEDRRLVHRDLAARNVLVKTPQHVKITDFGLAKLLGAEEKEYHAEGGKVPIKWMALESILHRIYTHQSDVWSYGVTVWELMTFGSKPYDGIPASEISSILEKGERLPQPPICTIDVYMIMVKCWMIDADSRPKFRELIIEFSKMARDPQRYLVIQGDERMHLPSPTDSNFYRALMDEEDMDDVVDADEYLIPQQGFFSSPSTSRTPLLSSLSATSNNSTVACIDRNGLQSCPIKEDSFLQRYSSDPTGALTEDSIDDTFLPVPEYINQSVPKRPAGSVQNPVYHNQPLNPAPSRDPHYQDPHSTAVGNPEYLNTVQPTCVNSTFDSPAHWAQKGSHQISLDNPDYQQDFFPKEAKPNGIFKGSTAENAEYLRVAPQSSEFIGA

| IC50 (ATP conc. 3 μM) | IC50 (ATP conc. 10 μM) | Structure (SMILES) | IC50 (ATP conc. 1 μM) |
| --- | --- | --- | --- |
| – | – | COC1C=CC=C(C)C(=O)NC2=CC(=O)C=C(C2=O)C(OC)C(C)CC(OC)C(OC)C(C)C=C(C)C1OC(N)=O (stereo not shown) [Herbimycin A] | > 100000 nM |
| 100 nM | 55000 nM | O=C(O)c1cc(N(Cc2ccccc2O)Cc2cc(O)ccc2O)ccc1O [Lavendustin A] | 80 nM |
